According to patent US20260317356A1, “SMALL MOLECULE MODULATORS OF OGG1” (AZKARRA THERAPEUTICS, INC., priority 2023, published 2026):

The compounds below were run against hOGG1 (Homo sapiens, UniProt O15527) (assay: Biochemical fluorescence assay to measure enzymatic activity of hOGG1 (OGG1/APEX IC50)). Details: 1 nM OGG1+2 nM APEX+6 nM dsDNA (8-oxo-dG substrate); pH 7.5; RT 40 min; read-out: OGG1/APEX IC50.
Parameters: Protein His-hOGG1 (12-323) was prepared; His (N); host or cells: E. coli
Summary of the method: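 His-hOGG1 (12-323, E. coli) at 1 nM with 2 nM hAPE1/APEX1, preincubated 20 min RT with compound. Then 6 nM 8-oxo-dG dsDNA substrate added, 40 min at RT in Tris pH 7.5, 100 mM KCl. TAMRA fluorescence (Ex520/Em600) converted to % inhibition vs controls; IC50 from 3-parameter fit of 10-point curve.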

Sequence of hOGG1 (O15527 12-323): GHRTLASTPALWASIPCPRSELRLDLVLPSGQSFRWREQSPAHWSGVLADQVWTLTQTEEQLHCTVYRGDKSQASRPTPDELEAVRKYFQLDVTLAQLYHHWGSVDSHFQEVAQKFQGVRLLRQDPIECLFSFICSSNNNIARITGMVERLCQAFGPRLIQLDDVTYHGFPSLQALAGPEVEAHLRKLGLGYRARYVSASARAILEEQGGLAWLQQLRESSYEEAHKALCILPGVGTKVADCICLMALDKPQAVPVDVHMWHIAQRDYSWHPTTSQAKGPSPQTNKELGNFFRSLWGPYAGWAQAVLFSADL

| IC50 [nM] | SMILES |
| --- | --- |
| > 10000 | COc1cc(NC(=O)[C@H]2CC[C@@H](N3Cc4c(CN)ccc(Cl)c4C3=O)CC2)ccc1C [Example 133, (1s,4s)-4-(4-(Aminomethyl)-7-chloro-1-oxoisoindolin-2-yl)-N-(3-methoxy-4-methylphenyl)cyclohexane-1-carboxamide] |
| > 10000 | Cc1ncc(NC(=O)[C@H]2CC[C@@H](N3Cc4c(C)cccc4C3=O)CC2)s1 [Example 232, (1s,4s)-4-(4-Methyl-1-oxoisoindolin-2-yl)-N-(2-methylthiazol-5-yl)cyclohexanecarboxamide] |
| < 100 | COc1cc(NC(=O)[C@H]2CC[C@@H](N3Cc4c(C)cncc4NC3=O)CC2)ccc1C [Example 37, (1s,4s)-N-(3-Methoxy-4-methylphenyl)-4-(5-methyl-2-oxo-1,2-dihydropyrido[3,4-d]pyrimidin-3(4H)-yl)cyclohexanecarboxamide] |
| < 100 | COc1cc(NC(=O)[C@H]2CC[C@@H](N3Cc4c(C)cc(NCC5CCCN5)cc4C3=O)CC2)ccc1C (stereo partly drawn) [Example 194, (1s,4s)-N-(3-methoxy-4-methylphenyl)-4-(4-methyl-1-oxo-6-(pyrrolidin-2-ylmethylamino)isoindolin-2-yl)cyclohexanecarboxamide] |
| 1000 to 10000 | COc1cc(NC(=O)[C@H]2CC[C@@H](N3Cc4c(Br)cc(NC(C)C(C)O)cc4C3=O)CC2)ccc1C (stereo partly drawn) [Example 178, (1s,4s)-4-(4-Bromo-6-(3-hydroxybutan-2-ylamino)-1-oxoisoindolin-2-yl)-N-(3-methoxy-4-methylphenyl)cyclohexanecarboxamide] |
| 1000 to 10000 | COc1cccc(NC(=O)[C@H]2CC[C@@H](N3Cc4c(C)cccc4C3=O)CC2)c1 [Example 245, (1s,4s)-N-(3-Methoxyphenyl)-4-(4-methyl-1-oxoisoindolin-2-yl)cyclohexanecarboxamide] |
| > 10000 | COc1cc(NC(=O)[C@H]2[C@@H]3C[C@@H](N4Cc5c(Br)cccc5C4=O)C[C@@H]32)ccc1C (single isomer, unassigned) [Example 270] |
| 100 to 1000 | Cc1cccc2c1CN([C@H]1CC[C@@H](C(=O)Nc3ccc4oncc4c3)CC1)C2=O [Example 275, (1s,4s)-N-(benzo[d]isoxazol-5-yl)-4-(4-methyl-1-oxoisoindolin-2-yl)cyclohexanecarboxamide] |
| 100 to 1000 | CCc1ccc(NC(=O)[C@H]2CC[C@@H](N3Cc4c(C)cccc4NC3=O)CC2)cc1C#N [Example 94, (1s,4s)-N-(3-cyano-4-ethylphenyl)-4-(5-methyl-2-oxo-1,2-dihydroquinazolin-3(4H)-yl)cyclohexanecarboxamide] |
| 100 to 1000 | COc1cc(NC(=O)[C@H]2[C@@H]3C[C@H](N4Cc5c(Br)cccc5C4=O)C[C@@H]32)ccc1C (single isomer, unassigned) [Example 268] |
| < 100 | COc1cc(NC(=O)[C@H]2CC[C@@H](N3Cc4c(C)ccc(Cl)c4C3=O)CC2)ccc1C [Example 144, (1s,4s)-4-(7-Chloro-4-methyl-1-oxoisoindolin-2-yl)-N-(3-methoxy-4-methylphenyl)cyclohexanecarboxamide] |
| 1000 to 10000 | COc1cc(NC(=O)[C@H]2CC[C@@H](N3Cc4c(N)cccc4C3=O)CC2)ccc1C [Example 154, (1s,4s)-4-(4-Amino-1-oxoisoindolin-2-yl)-N-(3-methoxy-4-methylphenyl)cyclohexanecarboxamide] |
| 1000 to 10000 | COc1cc(NC(=O)[C@H]2CC[C@@H](N3Cc4c(F)cccc4C3=O)CC2)ccc1C [Example 164, (1s,4s)-4-(4-Fluoro-1-oxoisoindolin-2-yl)-N-(3-methoxy-4-methylphenyl)cyclohexanecarboxamide] |
| 100 to 1000 | Cc1cc(NC(=O)[C@H]2CC[C@@H](N3Cc4c(C)cccc4C3=O)CC2)ccc1Cl [Example 225, (1s,4s)-N-(4-Chloro-3-methylphenyl)-4-(4-methyl-1-oxoisoindolin-2-yl)cyclohexanecarboxamide] |
| < 100 | COc1cc(NC(=O)[C@H]2CC[C@@H](N3Cc4c(C)cc(OCCN5CCC5)cc4C3=O)CC2)ccc1C [Example 261, (1s,4s)-4-(6-(2-(Azetidin-1-yl)ethoxy)-4-methyl-1-oxoisoindolin-2-yl)-N-(3-methoxy-4-methylphenyl)cyclohexanecarboxamide] |
| > 10000 | CCOC(=O)c1ccc2c(c1)CN([C@H]1CC[C@@H](C(=O)Nc3ccc(C)c(OC)c3)CC1)C2=O [Example 171, Ethyl 2-((1s,4s)-4-(3-methoxy-4-methylphenylcarbamoyl)cyclohexyl)-1-oxoisoindoline-5-carboxylate] |
| 100 to 1000 | COc1cc(NC(=O)[C@H]2CC[C@@H](N3Cc4c(Br)ccnc4C3=O)CC2)ccc1C [Example 168, (1s,4s)-4-(4-Bromo-7-oxo-5H-pyrrolo[3,4-b]pyridin-6 (7H)-yl)-N-(3-methoxy-4-methylphenyl)cyclohexanecarboxamide] |

| IC50 [nM] | SMILES |
| --- | --- |
| > 10000 | COc1cc(NC(=O)C[C@H]2C[C@H](N3Cc4c(Br)cccc4C3=O)C2)ccc1C [Example 187, 2-((1r,3r)-3-(4-Bromo-1-oxoisoindolin-2-yl)cyclobutyl)-N-(3-methoxy-4-methylphenyl)acetamide] |
| 1000 to 10000 | COc1cc(NC(=O)[C@H]2CC[C@@H](N3Cc4c(cccc4OC)NC3=O)CC2)ccc1C [Example 71, (1s,4s)-4-(5-methoxy-2-oxo-1,2-dihydroquinazolin-3(4H)-yl)-N-(3-methoxy-4-methylphenyl)cyclohexanecarboxamide] |
| 100 to 1000 | COc1cc(NC(=O)[C@H]2CC[C@@H](N3Cc4c(C)cc(OCc5ncc[nH]5)cc4C3=O)CC2)ccc1C [Example 226, (1s,4s)-4-(6-((1H-Imidazol-2-yl)methoxy)-4-methyl-1-oxoisoindolin-2-yl)-N-(3-methoxy-4-methylphenyl)cyclohexanecarboxamide] |
| > 10000 | COc1cc(NC(=O)[C@H]2CC[C@@H](N3Cc4c(cccc4C4CCC4)C3=O)CC2)ccc1C [Example 152, (1s,4s)-4-(4-Cyclobutyl-1-oxoisoindolin-2-yl)-N-(3-methoxy-4-methylphenyl)cyclohexanecarboxamide] |
| 1000 to 10000 | Cc1cccc2c1CN([C@H]1CC[C@@H](C(=O)Nc3ccc(O)cc3)CC1)C2=O [Example 229, (1s,4s)-N-(4-Hydroxyphenyl)-4-(4-methyl-1-oxoisoindolin-2-yl)cyclohexanecarboxamide] |
| 100 to 1000 | COc1cc(NC(=O)[C@H]2CC[C@@H](N3Cc4c(Br)ccc(Cl)c4C3=O)CC2)ccc1C [Example 142, (1s,4s)-4-(4-Bromo-7-chloro-1-oxoisoindolin-2-yl)-N-(3-methoxy-4-methylphenyl)cyclohexanecarboxamide] |
| < 100 | COc1cc(NC(=O)[C@H]2CC[C@@H](N3Cc4c(C)cc(C#N)cc4NC3=O)CC2)ccc1C [Example 31, (1s,4s)-4-(7-Cyano-5-methyl-2-oxo-1,2-dihydroquinazolin-3(4H)-yl)-N-(3-methoxy-4-methylphenyl)cyclohexanecarboxamide] |
| < 100 | COc1cc(NC(=O)[C@H]2CC[C@@H](N3Cc4c(C)cc(N5CC(OC)C5)cc4NC3=O)CC2)ccc1C [Example 29, (1s,4s)-N-(3-Methoxy-4-methylphenyl)-4-(7-(3-methoxyazetidin-1-yl)-5-methyl-2-oxo-1,2-dihydroquinazolin-3(4H)-yl)cyclohexanecarboxamide] |
| < 100 | COc1cc(NC(=O)[C@H]2CC[C@@H](N3Cc4c(C)cc(C=O)cc4NC3=O)CC2)ccc1C [Example 78, (1s,4s)-4-(7-formyl-5-methyl-2-oxo-1,2-dihydroquinazolin-3(4H)-yl)-N-(3-methoxy-4-methylphenyl)cyclohexanecarboxamide] |
| < 100 | COc1cc(NC(=O)[C@H]2CC[C@@H](N3Cc4c(C)cc(C5COC5)cc4NC3=O)CC2)ccc1C [Example 33, (1s,4s)-N-(3-Methoxy-4-methylphenyl)-4-(5-methyl-7-(oxetan-3-yl)-2-oxo-1,2-dihydroquinazolin-3(4H)-yl)cyclohexanecarboxamide] |
| 100 to 1000 | COc1cc(NC(=O)[C@H]2CC[C@@H](N3Cc4c(C)cccc4C3=O)CC2)ccc1Cl [Example 223, (1s,4s)-N-(4-Chloro-3-methoxyphenyl)-4-(4-methyl-1-oxoisoindolin-2-yl)cyclohexanecarboxamide] |
| > 10000 | COc1cc(NC(=O)[C@H]2CC[C@@H](n3oc4c(Br)cccc4c3=O)CC2)ccc1C [Example 184, (1s,4s)-4-(7-Bromo-3-oxobenzo[d]isoxazol-2(3H)-yl)-N-(3-methoxy-4-methylphenyl)cyclohexanecarboxamide] |
| 100 to 1000 | COc1ccc(NC(=O)[C@H]2CC[C@@H](N3Cc4c(C)cccc4C3=O)CC2)cc1F [Example 224, (1s,4s)-N-(3-Fluoro-4-methoxyphenyl)-4-(4-methyl-1-oxoisoindolin-2-yl)cyclohexanecarboxamide] |
| 100 to 1000 | COc1cc(NC(=O)[C@H]2CC[C@@H](N3Cc4c(Br)cc(NC(=O)Cc5c[nH]cn5)cc4C3=O)CC2)ccc1C [Example 201, (1s,4s)-4-(6-(2-(1H-Imidazol-4-yl)acetamido)-4-bromo-1-oxoisoindolin-2-yl)-N-(3-methoxy-4-methylphenyl)cyclohexanecarboxamide] |
| 100 to 1000 | Cc1ccc(NC(=O)[C@H]2CC[C@@H](N3Cc4c(C)cccc4C3=O)CC2)cc1Br [Example 124, (1s,4s)-N-(3-Bromo-4-methylphenyl)-4-(4-methyl-1-oxoisoindolin-2-yl)cyclohexane-1-carboxamide] |
| < 100 | COc1cc(NC(=O)[C@H]2CC[C@@H](N3Cc4c(Br)cc(NCCN(C)C)cc4C3=O)CC2)ccc1C [Example 198, (1s,4s)-4-(4-Bromo-6-(2-(dimethylamino)ethylamino)-1-oxoisoindolin-2-yl)-N-(3-methoxy-4-methylphenyl)cyclohexanecarboxamide] |
